Measured values published in PubChem BioAssay (NCI).
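Abbreviation: GI50, concentration required for 50% inhibition of growth. TGI: total growth inhibition.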

Columns and labels:
Assay in all cases: DTP human tumour cell line panel, 384-well format
[1] = tested on: 786-0 renal
[2] = tested on: A498 renal
[3] = tested on: A549 NSCLC
[4] = tested on: ACHN renal
[5] = tested on: CAKI-1 renal
[6] = tested on: CCRF-CEM leukemia
[7] = tested on: COLO 205 colon
[8] = tested on: DU-145 prostate
[9] = tested on: HCC-2998 colon
[10] = tested on: HCT-116 colon
[11] = tested on: HCT-15 colon
[12] = tested on: HL-60(TB) leukemia
[13] = tested on: HOP-92 NSCLC
[14] = tested on: HT29 colon
[15] = tested on: IGROV1 ovarian
[16] = tested on: K-562 leukemia
[17] = tested on: KM12 colon
[18] = tested on: LOX IMVI melanoma
[19] = tested on: M14 melanoma
[20] = tested on: MALME-3M melanoma
[21] = tested on: MCF7 breast
[22] = tested on: MDA-MB-231 breast
[23] = tested on: MDA-MB-435 melanoma
[24] = tested on: MDA-MB-468 breast
[25] = tested on: MOLT-4 leukemia
[26] = tested on: NCI-H226 lung
[27] = tested on: NCI-H23 lung
[28] = tested on: NCI-H322M lung
[29] = tested on: NCI-H460 NSCLC
[30] = tested on: NCI-H522 lung
[31] = tested on: NCI/ADR-RES ovarian
[32] = tested on: OVCAR-3 ovarian
[33] = tested on: OVCAR-4 ovarian
[34] = tested on: OVCAR-5 ovarian
[35] = tested on: OVCAR-8 ovarian
[36] = tested on: PC-3 prostate
[37] = tested on: RPMI-8226 leukemia
[38] = tested on: RXF 393 renal
[39] = tested on: SF-268 CNS
[40] = tested on: SF-295 CNS
[41] = tested on: SF-539 CNS
[42] = tested on: SK-MEL-2 melanoma
[43] = tested on: SK-MEL-28 melanoma
[44] = tested on: SK-MEL-5 melanoma
[45] = tested on: SK-OV-3 ovarian
[46] = tested on: SN12C renal
[47] = tested on: SNB-19 CNS
[48] = tested on: SR leukemia
[49] = tested on: SW-620 colon
[50] = tested on: T-47D breast
[51] = tested on: TK-10 renal
[52] = tested on: U251 glioblastoma
[53] = tested on: UACC-257 melanoma
[54] = tested on: UACC-62 melanoma
[55] = tested on: UO-31 renal
[56] = tested on: BT-549 breast
[57] = tested on: EKVX NSCLC
[58] = tested on: HOP-62 NSCLC
[59] = tested on: HS 578T breast
[60] = tested on: SNB-75 CNS

CCc1cc(Nc2nccc(-c3c(-c4ccc(OC)c(C(=O)Nc5c(F)cccc5F)c4)nc4ccccn34)n2)c(OC)cc1N1CCC(N2CCN(S(C)(=O)=O)CC2)CC1
GI50 [1]: > 100 µM
TGI [1]: > 100 µM
GI50 [2]: > 100 µM
TGI [2]: > 100 µM
GI50 [3]: > 100 µM
TGI [3]: > 100 µM
GI50 [4]: > 100 µM
TGI [4]: > 100 µM
GI50 [5]: > 100 µM
TGI [5]: > 100 µM
GI50 [6]: > 100 µM
TGI [6]: > 100 µM
GI50 [7]: > 100 µM
TGI [7]: > 100 µM
GI50 [8]: > 100 µM
TGI [8]: > 100 µM
GI50 [9]: > 100 µM
TGI [9]: > 100 µM
GI50 [10]: > 100 µM
TGI [10]: > 100 µM
GI50 [11]: > 100 µM
TGI [11]: > 100 µM
GI50 [12]: > 100 µM
TGI [12]: > 100 µM
GI50 [13]: > 100 µM
TGI [13]: > 100 µM
GI50 [14]: > 100 µM
TGI [14]: > 100 µM
GI50 [15]: > 100 µM
TGI [15]: > 100 µM
GI50 [16]: > 100 µM
TGI [16]: > 100 µM
GI50 [17]: > 100 µM
TGI [17]: > 100 µM
GI50 [18]: > 100 µM
TGI [18]: > 100 µM
GI50 [19]: > 100 µM
TGI [19]: > 100 µM
GI50 [20]: > 100 µM
TGI [20]: > 100 µM
GI50 [21]: > 100 µM
TGI [21]: > 100 µM
GI50 [22]: 18.6 µM
TGI [22]: > 100 µM
GI50 [23]: > 100 µM
TGI [23]: > 100 µM
GI50 [24]: 0.935 µM
TGI [24]: > 100 µM
GI50 [25]: 0.645 µM
TGI [25]: > 100 µM
GI50 [26]: > 100 µM
TGI [26]: > 100 µM
GI50 [27]: > 100 µM
TGI [27]: > 100 µM
GI50 [28]: > 100 µM
TGI [28]: > 100 µM
GI50 [29]: > 100 µM
TGI [29]: > 100 µM
GI50 [30]: > 100 µM
TGI [30]: > 100 µM
GI50 [31]: > 100 µM
TGI [31]: > 100 µM
GI50 [32]: > 100 µM
TGI [32]: > 100 µM
GI50 [33]: > 100 µM
TGI [33]: > 100 µM
GI50 [34]: > 100 µM
TGI [34]: > 100 µM
GI50 [35]: 1.79 µM
TGI [35]: > 100 µM
GI50 [36]: > 100 µM
TGI [36]: > 100 µM
GI50 [37]: 0.908 µM
TGI [37]: > 100 µM
GI50 [38]: 0.75 µM
TGI [38]: > 100 µM
GI50 [39]: > 100 µM
TGI [39]: > 100 µM
GI50 [40]: > 100 µM
TGI [40]: > 100 µM
GI50 [41]: > 100 µM
TGI [41]: > 100 µM
GI50 [42]: > 100 µM
TGI [42]: > 100 µM
GI50 [43]: > 100 µM
TGI [43]: > 100 µM
GI50 [44]: > 100 µM
TGI [44]: > 100 µM
GI50 [45]: > 100 µM
TGI [45]: > 100 µM
GI50 [46]: > 100 µM
TGI [46]: > 100 µM
GI50 [47]: > 100 µM
TGI [47]: > 100 µM
GI50 [48]: 0.932 µM
TGI [48]: > 100 µM
GI50 [49]: > 100 µM
TGI [49]: > 100 µM
GI50 [50]: 0.587 µM
TGI [50]: > 100 µM
GI50 [51]: > 100 µM
TGI [51]: > 100 µM
GI50 [52]: > 100 µM
TGI [52]: > 100 µM
GI50 [53]: > 100 µM
TGI [53]: > 100 µM
GI50 [54]: > 100 µM
TGI [54]: > 100 µM
GI50 [55]: > 100 µM
TGI [55]: > 100 µM

Cc1cncc2cccc(S(=O)(=O)N3CCCNC[C@@H]3C)c12
GI50 [1]: 13.6 µM
TGI [1]: > 100 µM
GI50 [2]: > 100 µM
TGI [2]: > 100 µM
GI50 [3]: 11.2 µM
TGI [3]: 49.4 µM
GI50 [4]: 25.9 µM
TGI [4]: > 100 µM
GI50 [56]: 1.8 µM
TGI [56]: 7.48 µM
GI50 [5]: 7.51 µM
TGI [5]: 24.7 µM
GI50 [6]: 1.25 µM
TGI [6]: 2.57 µM
GI50 [7]: 3.03 µM
TGI [7]: 11 µM
GI50 [8]: 5.94 µM
TGI [8]: > 100 µM
GI50 [57]: 16.3 µM
TGI [57]: > 100 µM
GI50 [9]: 42.4 µM
TGI [9]: > 100 µM
GI50 [10]: 7.52 µM
TGI [10]: 48 µM
GI50 [11]: 11.2 µM
TGI [11]: > 100 µM
GI50 [12]: 1.49 µM
TGI [12]: 3.09 µM
GI50 [58]: 11.3 µM
TGI [58]: 62.4 µM
GI50 [13]: 10.3 µM
TGI [13]: 36.1 µM
GI50 [59]: 1.89 µM
TGI [59]: 4.55 µM
GI50 [14]: 4.96 µM
TGI [14]: > 100 µM
GI50 [15]: 7.65 µM
TGI [15]: 58.1 µM
GI50 [16]: 0.537 µM
TGI [16]: > 100 µM
GI50 [17]: 16.4 µM
TGI [17]: 81.2 µM
GI50 [18]: 12.1 µM
TGI [18]: 31.8 µM
GI50 [19]: > 100 µM
TGI [19]: > 100 µM
GI50 [20]: > 100 µM
TGI [20]: > 100 µM
GI50 [21]: 28 µM
TGI [21]: > 100 µM
GI50 [22]: 14.9 µM
TGI [22]: 43.8 µM
GI50 [24]: 1.02 µM
TGI [24]: 2.28 µM
GI50 [25]: 0.492 µM
TGI [25]: 1.65 µM
GI50 [26]: 13.2 µM
TGI [26]: 68.2 µM
GI50 [27]: 10.8 µM
TGI [27]: 52 µM
GI50 [28]: 87.7 µM
TGI [28]: > 100 µM
GI50 [29]: 2.54 µM
TGI [29]: 67.8 µM
GI50 [30]: 1.71 µM
TGI [30]: 5.04 µM
GI50 [31]: 3.63 µM
TGI [31]: > 100 µM
GI50 [33]: > 100 µM
TGI [33]: > 100 µM
GI50 [34]: 25.5 µM
TGI [34]: > 100 µM
GI50 [36]: 8.81 µM
TGI [36]: > 100 µM
GI50 [38]: 5.06 µM
TGI [38]: 22.6 µM
GI50 [39]: 11.7 µM
TGI [39]: 87.3 µM
GI50 [40]: 4.35 µM
TGI [40]: > 100 µM
GI50 [41]: 4.32 µM
TGI [41]: 20.1 µM
GI50 [42]: 7.56 µM
TGI [42]: 42.4 µM
GI50 [43]: > 100 µM
TGI [43]: > 100 µM
GI50 [44]: 5.64 µM
TGI [44]: > 100 µM
GI50 [45]: 18.5 µM
TGI [45]: > 100 µM
GI50 [46]: 15.1 µM
TGI [46]: 61.1 µM
GI50 [47]: 8.41 µM
TGI [47]: > 100 µM
GI50 [60]: 1.66 µM
TGI [60]: 10 µM
GI50 [48]: 0.227 µM
TGI [48]: 0.389 µM
GI50 [49]: 2.74 µM
TGI [49]: 10.7 µM
GI50 [50]: > 100 µM
TGI [50]: > 100 µM
GI50 [51]: 10.1 µM
TGI [51]: 37.3 µM
GI50 [52]: 5.17 µM
TGI [52]: > 100 µM
GI50 [53]: > 100 µM
TGI [53]: > 100 µM
GI50 [54]: 2.04 µM
TGI [54]: 50.2 µM
GI50 [55]: 10.6 µM
TGI [55]: 24 µM
